According to patent US20130059805A1, “COMPOSITION COMPRISING AN AMORPHOUS NON-CRYSTALLINE GLASS FORM OF AZITHROMYCIN” (North-West University, priority 2009, published 2013):
Values after ≈ are worked out from the molar mass of the structure shown. Where two headings read alike, the source gives them in different places.

Key:
[1] = oral; cited from earlier work
[2] = 0.1 N HCl; cited from earlier work
[3] = Structural stability study at 40° C. and 75% relative humidity (XRPD, DSC, thermal microscopy); type: physicochemical; conditions: 4 week testing period
Description: FIG. 5: is a characteristic XRPD (x-ray powder diffraction pattern) of amorphous non-crystalline glass form (Form-II) of azithromycin taken over a period of time wherein 0 is at time of preparation, 1 is week 1, 2 is week 2, 3 is week 3 and 4 is week 4 (Vertical axis: intensity (Lin (counts)); Horizontal axis: 2 Theta (degrees));
FIG. 12: is a DSC (differential scanning calorimetry) trace of amorphous non-crystalline glass form (Form-II) of azithromycin, taken over a period of time, according to one embodiment of the invention wherein 0 is at time of preparation, 1 is week 1, 2 is week 2, 3 is week 3 and 4 is week 4 (Vertical axis: Heat flow (mW); Horizontal axis: temperature (degrees Celsius));
FIG. 13: is a thermal microscopy image (at 25 degrees Celsius) of amorphous non-crystalline glass form (Form-II) of azithromycin taken in the fourth week after preparation according to one embodiment of the invention; and […]

[4] = Solubility in four media (excess solid, 37 degrees Celsius, 24 h, HPLC assay); type: physicochemical; conditions: for solubility at 24 h: 37 °C, thermodynamic from solid
Procedure: In further analysis of the amorphous non-crystalline glass form (Form-II) of azithromycin, each of five replicate test tubes were filled with an excess of amorphous non-crystalline glass form (Form-II) of azithromycin and 10 ml of solubility medium. The process was performed with each of the following mediums: 0.1 N hydrochloric acid (pH 1), acetate buffer (pH 4.5), phosphate buffer (pH 6.8) and distilled water. This method was also used for testing the prior art azithromycin dihydrate.
The test tubes were then fixed to a rotating axis (54 rpm) and submerged in a water bath at 37 degrees Celsius±2 degrees Celsius for twenty-four hours. The contents of the test tubes were filtered through a 0.45 μm filter and the respective filtrates were subsequently diluted.
The concentrations of the filtrates were determined by HPLC (high performance liquid chromatography) assay. The HPLC assay was performed utilising a mobile phase (600:400) consisting of 8.7 g/L potassium dihydrogen phosphate buffer (pH 4.5) and acetonitrile. A Luna C18 250 mm×4.6 mm column was used with a flow rate of 0.5 mL/min and a wavelength of 210 nm. Validation of this method provided a linear regression r^2 of 0.9999.

[5] = background statement; cited from earlier work

CC[C@H]1OC(=O)[C@H](C)[C@@H](O[C@H]2C[C@@](C)(OC)[C@@H](O)[C@H](C)O2)[C@H](C)[C@@H](O[C@@H]2O[C@H](C)C[C@H](N(C)C)[C@H]2O)[C@](C)(O)C[C@@H](C)CN(C)[C@H](C)[C@@H](O)[C@]1(C)O [azithromycin, (2R,3S,4R,5R,8R,10R,11R,12S,13S,14R)-2-ethyl-3,4,10-trihydroxy-3,5,6,8,10,12,14-heptamethyl-15-oxo-11-{[3,4,6-trideoxy-3-(dimethylamino)-β-D-xylo-hexopyranosyl]oxy}-1-oxa-6-azacyclopentadec-13-yl 2,6-dideoxy-3-C-methyl-3-O-methyl-α-L-ribo-hexopyranoside]
bioavailability (share of an orally administered dose reaching systemic circulation) [1]: 38% | acid stability [2]: acid-stable

CC[C@H]1OC(=O)[C@H](C)[C@@H](O[C@H]2C[C@@](C)(OC)[C@@H](O)[C@H](C)O2)[C@H](C)[C@@H](O[C@@H]2O[C@H](C)C[C@H](N(C)C)[C@H]2O)[C@](C)(O)C[C@@H](C)CN(C)[C@H](C)[C@@H](O)[C@]1(C)O
structural stability (solid form) [3]: structurally stable | solubility in 0.1 N HCl ([4]; 0.1 N HCl (pH 1), 37 degrees Celsius): 45.703 ± 0.917 mg/mL (≈ 61 mM) | solubility in acetate buffer (pH 4.5) ([4]; acetate buffer pH 4.5, 37 degrees Celsius): 18.045±0.485 mg/mL | solubility in distilled water ([4]; distilled water, 37 degrees Celsius): 1.357 ± 0.233 mg/mL (≈ 1.81 mM) | solubility in phosphate buffer (pH 6.8) ([4]; phosphate buffer pH 6.8, 37 degrees Celsius): 10.968±0.182 mg/mL

CC[C@H]1OC(=O)[C@H](C)[C@@H](O[C@H]2C[C@@](C)(OC)[C@@H](O)[C@H](C)O2)[C@H](C)[C@@H](O[C@@H]2O[C@H](C)C[C@H](N(C)C)[C@H]2O)[C@](C)(O)C[C@@H](C)CN(C)[C@H](C)[C@@H](O)[C@]1(C)O [azithromycin raw material (dihydrate), azithromycin dihydrate]
water solubility (in words) [5]: poorly soluble in water | solubility at 24 h ([4]; 0.1 N hydrochloric acid, simulated gastric fluid, 0.1 N HCl (pH 1), 37 degrees Celsius, read-out: solubility in 0.1 N HCl): 40.81 ± 0.368 mg/mL | solubility at 24 h ([4]; aqueous buffer, acetate buffer pH 4.5, 37 degrees Celsius, read-out: solubility in acetate buffer (pH 4.5)): 17.97 ± 0.113 mg/mL | solubility at 24 h ([4]; aqueous buffer, phosphate buffer pH 6.8, 37 degrees Celsius, read-out: solubility in phosphate buffer (pH 6.8)): 8.442 ± 0.069 mg/mL | solubility at 24 h ([4]; distilled water, 37 degrees Celsius, read-out: solubility in distilled water): 0.148 ± 0.028 mg/mL
